# Experimental data: ChEMBL document CHEMBL4507298 (2021)
# What was measured:
# [1] = molecular target: 5-hydroxytryptamine receptor 2B (Homo sapiens) (UniProt P41595); assay: 5-HT2B (h) (agonist site/DOI) CEREP ligand profiling; conditions: Compound concentration 10.0 uM
# [2] = molecular target: T1, Alpha-2B adrenergic receptor (Homo sapiens) (UniProt P18089); assay: alpha 2B (h) CEREP ligand profiling; conditions: Compound concentration 10.0 uM
# T1 sequence (whole entry): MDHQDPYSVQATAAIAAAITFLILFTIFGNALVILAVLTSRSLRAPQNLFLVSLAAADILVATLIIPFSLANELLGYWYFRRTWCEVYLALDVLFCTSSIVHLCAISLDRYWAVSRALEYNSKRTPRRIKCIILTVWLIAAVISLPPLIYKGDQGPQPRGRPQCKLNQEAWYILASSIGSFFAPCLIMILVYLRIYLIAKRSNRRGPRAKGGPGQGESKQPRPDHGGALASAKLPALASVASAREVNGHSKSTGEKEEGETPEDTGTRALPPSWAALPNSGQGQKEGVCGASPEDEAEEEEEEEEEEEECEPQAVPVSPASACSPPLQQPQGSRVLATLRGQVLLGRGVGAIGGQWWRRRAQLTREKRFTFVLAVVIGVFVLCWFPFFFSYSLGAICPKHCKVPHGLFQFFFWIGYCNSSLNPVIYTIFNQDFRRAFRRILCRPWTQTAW
# [3] = molecular target: Beta-2 adrenergic receptor (Homo sapiens) (UniProt P07550); assay: beta 2 (h) CEREP ligand profiling; conditions: Compound concentration 10.0 uM
# [4] = molecular target: Beta-3 adrenergic receptor (Homo sapiens) (UniProt P13945); assay: beta 3 (h) CEREP ligand profiling; conditions: Compound concentration 10.0 uM
# [5] = molecular target: C-X-C chemokine receptor type 4 (Homo sapiens) (UniProt P61073); assay: CXCR4 (h) CEREP ligand profiling; conditions: Compound concentration 10.0 uM
# [6] = molecular target: Sodium- and chloride-dependent GABA transporter 1 (Homo sapiens) (UniProt P30531); assay: GABA transporter CEREP ligand profiling; conditions: Compound concentration 10.0 uM
# [7] = Glycine (strychnine-insensitive) CEREP ligand profiling; conditions: Compound concentration 10.0 uM
# [8] = molecular target: Histamine H3 receptor (Homo sapiens) (UniProt Q9Y5N1); assay: H3 (h) CEREP ligand profiling; conditions: Compound concentration 10.0 uM
# [9] = molecular target: Leukotriene B4 receptor 1 (Homo sapiens, UniProt Q15722); assay: LTB4 (h) (BLT1) CEREP ligand profiling
# [10] = molecular target: Phosphodiesterase 6 (Homo sapiens) (UniProt Q13956+P18545+P35913+O43924+P16499+P51160); assay: PDE6 CEREP ligand profiling; assay type: protein assay; conditions: Compound concentration 10.0 uM
# [11] = molecular target: Vasopressin V2 receptor (Homo sapiens) (UniProt P30518); assay: V2 (h) CEREP ligand profiling; conditions: Compound concentration 10.0 uM
# [12] = molecular target: Activin receptor type-1B (Homo sapiens) (UniProt P36896); conditions: Compound concentration 1000.0 nM
# [13] = molecular target: ALK tyrosine kinase receptor (Homo sapiens) (UniProt Q9UM73); conditions: Compound concentration 1000.0 nM
# [14] = tested on: ALK tyrosine kinase receptor (Homo sapiens), Q9UM73 [C1156Y]; conditions: Compound concentration 1000.0 nM
# [15] = molecular target: Tyrosine-protein kinase Blk (Homo sapiens) (UniProt P51451); conditions: Compound concentration 1000.0 nM
# [16] = molecular target: Calcium/calmodulin-dependent protein kinase kinase 2 (Homo sapiens) (UniProt Q96RR4); conditions: Compound concentration 1000.0 nM
# [17] = molecular target: Ephrin type-A receptor 1 (Homo sapiens) (UniProt P21709); conditions: Compound concentration 1000.0 nM
# [18] = molecular target: Receptor tyrosine-protein kinase erbB-3 (Homo sapiens) (UniProt P21860); conditions: Compound concentration 1000.0 nM
# [19] = molecular target: G protein-coupled receptor kinase 3 (Homo sapiens) (UniProt P35626); conditions: Compound concentration 1000.0 nM
# [20] = molecular target: Tyrosine-protein kinase JAK1 (Homo sapiens) (UniProt P23458); conditions: Compound concentration 1000.0 nM
# [21] = molecular target: Dual specificity mitogen-activated protein kinase kinase 5 (Homo sapiens) (UniProt Q13163); conditions: Compound concentration 1000.0 nM
# [22] = molecular target: Muscle, skeletal receptor tyrosine-protein kinase (Homo sapiens) (UniProt O15146); conditions: Compound concentration 1000.0 nM
# [23] = molecular target: Serine/threonine-protein kinase Nek4 (Homo sapiens) (UniProt P51957); conditions: Compound concentration 1000.0 nM
# [24] = molecular target: Serine/threonine-protein kinase PAK 4 (Homo sapiens) (UniProt O96013); conditions: Compound concentration 1000.0 nM
# [25] = molecular target: Cyclin-dependent kinase 2 homolog (Plasmodium falciparum (isolate 3D7)) (UniProt P61075); conditions: Compound concentration 1000.0 nM
# [26] = molecular target: 1-phosphatidylinositol 3-phosphate 5-kinase (Homo sapiens) (UniProt Q9Y2I7); conditions: Compound concentration 1000.0 nM
# [27] = molecular target: Phosphatidylinositol 4-phosphate 5-kinase type-1 gamma (Homo sapiens) (UniProt O60331); conditions: Compound concentration 1000.0 nM
# [28] = molecular target: Serine/threonine-protein kinase PLK3 (Homo sapiens) (UniProt Q9H4B4); conditions: Compound concentration 1000.0 nM
# [29] = molecular target: Serine/threonine-protein kinase Sgk2 (Homo sapiens) (UniProt Q9HBY8); conditions: Compound concentration 1000.0 nM
# [30] = molecular target: Serine/threonine-protein kinase 36 (Homo sapiens) (UniProt Q9NRP7); conditions: Compound concentration 1000.0 nM
# [31] = molecular target: Serine/threonine-protein kinase tousled-like 1 (Homo sapiens) (UniProt Q9UKI8); conditions: Compound concentration 1000.0 nM
# [32] = molecular target: High affinity nerve growth factor receptor (Homo sapiens) (UniProt P04629); conditions: Compound concentration 1000.0 nM
# [33] = molecular target: Testis-specific serine/threonine-protein kinase 3 (Homo sapiens) (UniProt Q96PN8); conditions: Compound concentration 1000.0 nM
# Histamine H4 receptor = Histamine H4 receptor (Homo sapiens, UniProt Q9H3N8); assay: GPCRScan assay: inhibition of H4; set-up: radioligand conc. used [nm] 1.0 – 5.0, parental cells HEK T
# [34] = molecular target: Beta-1 adrenergic receptor (Homo sapiens) (UniProt P08588); conditions: Compound concentration 10.0 uM
# Sequence of Beta-1 adrenergic receptor (Homo sapiens) (P08588 whole entry, looked up): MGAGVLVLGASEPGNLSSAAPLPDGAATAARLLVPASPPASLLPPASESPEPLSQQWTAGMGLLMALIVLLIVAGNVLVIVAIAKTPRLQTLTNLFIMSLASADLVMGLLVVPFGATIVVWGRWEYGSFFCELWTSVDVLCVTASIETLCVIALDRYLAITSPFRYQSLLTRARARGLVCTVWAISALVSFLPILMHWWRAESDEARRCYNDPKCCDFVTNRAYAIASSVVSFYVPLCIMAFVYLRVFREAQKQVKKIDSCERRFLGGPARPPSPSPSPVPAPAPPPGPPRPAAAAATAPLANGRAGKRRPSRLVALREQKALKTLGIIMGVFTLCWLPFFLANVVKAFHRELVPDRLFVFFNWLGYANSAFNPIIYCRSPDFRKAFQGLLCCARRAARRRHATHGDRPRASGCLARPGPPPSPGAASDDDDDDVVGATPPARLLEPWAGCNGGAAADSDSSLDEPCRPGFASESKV
# Sequence of Leukotriene B4 receptor 1 (Q15722 whole entry): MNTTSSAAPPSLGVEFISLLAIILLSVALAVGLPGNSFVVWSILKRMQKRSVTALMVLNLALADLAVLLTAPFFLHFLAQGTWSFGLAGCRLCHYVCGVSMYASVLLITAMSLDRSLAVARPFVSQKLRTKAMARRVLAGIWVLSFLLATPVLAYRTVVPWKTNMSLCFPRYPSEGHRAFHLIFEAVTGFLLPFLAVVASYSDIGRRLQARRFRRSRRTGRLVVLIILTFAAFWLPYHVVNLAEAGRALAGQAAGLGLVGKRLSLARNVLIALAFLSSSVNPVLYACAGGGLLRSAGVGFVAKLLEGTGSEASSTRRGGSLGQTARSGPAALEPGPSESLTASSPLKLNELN
# Sequence of Activin receptor type-1B (Homo sapiens) (P36896 whole entry): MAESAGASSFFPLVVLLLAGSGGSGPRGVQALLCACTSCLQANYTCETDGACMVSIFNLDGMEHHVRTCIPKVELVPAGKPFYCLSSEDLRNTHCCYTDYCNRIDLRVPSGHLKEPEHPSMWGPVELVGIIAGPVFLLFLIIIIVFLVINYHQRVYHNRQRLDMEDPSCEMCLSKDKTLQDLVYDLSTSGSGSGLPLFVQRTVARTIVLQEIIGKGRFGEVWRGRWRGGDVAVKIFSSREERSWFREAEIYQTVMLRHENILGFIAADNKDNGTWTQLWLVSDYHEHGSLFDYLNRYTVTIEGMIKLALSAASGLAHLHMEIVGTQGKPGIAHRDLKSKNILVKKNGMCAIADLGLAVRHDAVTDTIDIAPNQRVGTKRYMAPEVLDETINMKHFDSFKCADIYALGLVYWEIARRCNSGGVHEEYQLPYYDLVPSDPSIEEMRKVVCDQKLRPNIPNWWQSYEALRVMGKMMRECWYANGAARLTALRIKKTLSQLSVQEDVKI
# Sequence of Beta-2 adrenergic receptor (Homo sapiens) (P07550 whole entry, looked up): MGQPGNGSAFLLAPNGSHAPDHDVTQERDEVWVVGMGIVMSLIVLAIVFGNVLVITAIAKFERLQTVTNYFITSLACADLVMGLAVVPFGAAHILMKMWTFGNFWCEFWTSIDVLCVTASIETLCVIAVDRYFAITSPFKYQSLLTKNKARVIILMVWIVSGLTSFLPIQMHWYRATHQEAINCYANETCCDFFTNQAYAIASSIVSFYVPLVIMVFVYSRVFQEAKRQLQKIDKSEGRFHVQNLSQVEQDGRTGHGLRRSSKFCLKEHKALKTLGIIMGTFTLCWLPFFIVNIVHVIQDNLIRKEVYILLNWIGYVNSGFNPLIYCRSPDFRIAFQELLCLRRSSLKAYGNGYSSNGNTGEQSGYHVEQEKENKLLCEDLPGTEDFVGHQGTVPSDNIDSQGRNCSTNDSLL
# Sequence of Phosphatidylinositol 4-phosphate 5-kinase type-1 gamma (Homo sapiens) (O60331 whole entry): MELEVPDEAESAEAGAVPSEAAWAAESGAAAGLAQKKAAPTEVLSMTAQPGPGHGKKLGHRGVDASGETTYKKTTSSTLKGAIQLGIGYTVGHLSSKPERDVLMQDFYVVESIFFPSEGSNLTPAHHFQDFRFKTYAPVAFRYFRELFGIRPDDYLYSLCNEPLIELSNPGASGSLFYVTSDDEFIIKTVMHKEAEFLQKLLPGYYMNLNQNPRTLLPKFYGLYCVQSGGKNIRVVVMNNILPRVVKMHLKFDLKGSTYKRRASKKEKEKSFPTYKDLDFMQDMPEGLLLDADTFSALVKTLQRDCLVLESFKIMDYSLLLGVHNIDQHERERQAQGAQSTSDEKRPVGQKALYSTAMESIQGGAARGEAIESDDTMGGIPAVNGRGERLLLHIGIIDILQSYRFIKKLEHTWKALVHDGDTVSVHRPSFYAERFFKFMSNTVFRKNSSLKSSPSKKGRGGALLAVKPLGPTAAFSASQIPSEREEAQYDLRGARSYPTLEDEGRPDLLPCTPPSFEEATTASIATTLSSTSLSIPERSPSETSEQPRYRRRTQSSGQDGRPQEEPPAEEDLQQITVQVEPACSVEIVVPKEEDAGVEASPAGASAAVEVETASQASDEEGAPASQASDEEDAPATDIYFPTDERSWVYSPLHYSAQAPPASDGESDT
# Sequence of Serine/threonine-protein kinase PAK 4 (Homo sapiens) (O96013 whole entry, looked up): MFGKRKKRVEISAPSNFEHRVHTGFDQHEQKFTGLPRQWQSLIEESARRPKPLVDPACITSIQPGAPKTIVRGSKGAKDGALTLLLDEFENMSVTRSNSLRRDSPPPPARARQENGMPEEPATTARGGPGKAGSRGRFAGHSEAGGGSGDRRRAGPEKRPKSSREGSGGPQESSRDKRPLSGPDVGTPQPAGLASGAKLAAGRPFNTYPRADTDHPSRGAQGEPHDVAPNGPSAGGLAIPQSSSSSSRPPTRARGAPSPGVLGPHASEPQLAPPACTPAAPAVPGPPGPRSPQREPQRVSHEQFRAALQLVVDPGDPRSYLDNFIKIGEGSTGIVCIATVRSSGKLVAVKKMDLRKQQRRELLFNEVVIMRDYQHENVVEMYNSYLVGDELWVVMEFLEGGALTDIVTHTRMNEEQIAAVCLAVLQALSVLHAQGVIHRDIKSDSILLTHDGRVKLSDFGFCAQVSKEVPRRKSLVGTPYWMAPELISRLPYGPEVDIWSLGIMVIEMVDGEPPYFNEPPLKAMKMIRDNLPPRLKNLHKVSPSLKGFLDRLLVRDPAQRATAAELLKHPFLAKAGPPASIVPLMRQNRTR
# Sequence of C-X-C chemokine receptor type 4 (Homo sapiens) (P61073 whole entry): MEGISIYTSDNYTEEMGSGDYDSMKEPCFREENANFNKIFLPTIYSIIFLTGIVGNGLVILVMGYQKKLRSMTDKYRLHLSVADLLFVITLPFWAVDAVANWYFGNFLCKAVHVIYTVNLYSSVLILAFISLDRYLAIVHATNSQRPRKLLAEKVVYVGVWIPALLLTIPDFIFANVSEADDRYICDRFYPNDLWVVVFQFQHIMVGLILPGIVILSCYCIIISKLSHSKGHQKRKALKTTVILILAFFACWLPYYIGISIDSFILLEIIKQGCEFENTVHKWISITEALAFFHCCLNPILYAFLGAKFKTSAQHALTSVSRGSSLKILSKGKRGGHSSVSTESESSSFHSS
# Sequence of Tyrosine-protein kinase Blk (Homo sapiens) (P51451 2-505 limits assumed): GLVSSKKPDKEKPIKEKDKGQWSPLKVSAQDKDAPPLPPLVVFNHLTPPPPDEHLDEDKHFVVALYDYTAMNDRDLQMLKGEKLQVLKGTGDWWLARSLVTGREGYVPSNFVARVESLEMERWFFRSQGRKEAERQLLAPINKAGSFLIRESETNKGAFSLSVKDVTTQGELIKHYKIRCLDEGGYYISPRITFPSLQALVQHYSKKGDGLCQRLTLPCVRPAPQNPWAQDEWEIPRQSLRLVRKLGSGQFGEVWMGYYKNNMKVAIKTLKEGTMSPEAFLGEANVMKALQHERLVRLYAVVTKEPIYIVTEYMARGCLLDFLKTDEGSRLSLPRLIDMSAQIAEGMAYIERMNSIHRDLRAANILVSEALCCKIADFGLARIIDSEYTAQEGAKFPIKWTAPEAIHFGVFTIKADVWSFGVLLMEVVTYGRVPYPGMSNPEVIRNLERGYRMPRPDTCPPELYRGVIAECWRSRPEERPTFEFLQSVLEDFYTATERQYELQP
# Sequence of Testis-specific serine/threonine-protein kinase 3 (Homo sapiens) (Q96PN8 whole entry): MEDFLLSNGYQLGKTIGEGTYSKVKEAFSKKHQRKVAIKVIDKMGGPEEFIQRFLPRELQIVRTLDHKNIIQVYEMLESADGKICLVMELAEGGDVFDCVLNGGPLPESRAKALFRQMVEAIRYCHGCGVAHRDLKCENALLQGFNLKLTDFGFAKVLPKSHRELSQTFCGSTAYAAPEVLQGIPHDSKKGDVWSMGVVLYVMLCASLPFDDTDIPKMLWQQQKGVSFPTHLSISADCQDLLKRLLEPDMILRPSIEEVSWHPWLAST
# Sequence of Serine/threonine-protein kinase Sgk2 (Homo sapiens) (Q9HBY8 whole entry): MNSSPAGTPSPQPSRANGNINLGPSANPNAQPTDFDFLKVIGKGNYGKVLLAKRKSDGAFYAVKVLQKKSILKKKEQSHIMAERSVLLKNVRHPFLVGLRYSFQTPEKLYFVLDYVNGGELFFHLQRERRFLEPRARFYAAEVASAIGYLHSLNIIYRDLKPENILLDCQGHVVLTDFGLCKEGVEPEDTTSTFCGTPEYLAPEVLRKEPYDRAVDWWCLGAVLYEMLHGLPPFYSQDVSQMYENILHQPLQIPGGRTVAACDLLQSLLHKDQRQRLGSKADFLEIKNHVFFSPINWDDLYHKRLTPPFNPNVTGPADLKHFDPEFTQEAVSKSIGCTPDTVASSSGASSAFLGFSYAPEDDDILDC
# Sequence of Vasopressin V2 receptor (Homo sapiens) (P30518 whole entry): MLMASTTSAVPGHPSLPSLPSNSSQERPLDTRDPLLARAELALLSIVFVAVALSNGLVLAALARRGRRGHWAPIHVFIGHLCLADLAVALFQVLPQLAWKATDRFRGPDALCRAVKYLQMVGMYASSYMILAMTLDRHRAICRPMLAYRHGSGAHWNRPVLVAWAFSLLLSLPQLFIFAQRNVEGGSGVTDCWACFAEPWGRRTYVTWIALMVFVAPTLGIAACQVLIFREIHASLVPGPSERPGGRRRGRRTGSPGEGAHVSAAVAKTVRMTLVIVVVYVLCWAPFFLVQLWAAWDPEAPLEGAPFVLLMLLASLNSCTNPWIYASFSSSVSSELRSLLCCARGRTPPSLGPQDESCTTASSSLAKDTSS
smiles,measurement,setting,value
COc1ccc2cc(OCC3(C(=O)O)CN(C(=O)c4ccc(F)cc4)C3)ccc2c1 [PF-04418948],inhibition,[1],13%
same,inhibition,[2],1%
same,inhibition,[3],-4%
same,inhibition,[4],3%
same,inhibition,[5],4%
same,inhibition,[6],14%
same,inhibition,[7],11%
same,inhibition,[8],10%
same,IC50,[9],9.7 µM
same,Ki,[9],4.8 µM
same,inhibition,[9]; Compound concentration 10.0 uM,51%
same,inhibition,[10],3%
same,inhibition,[11],-1%
same,residual activity,[12],78%
same,residual activity,[13],79%
same,residual activity,[14],79%
same,residual activity,[15],93%
same,residual activity,[16],94%
same,residual activity,[17],83%
same,residual activity,[18],89%
same,residual activity,[19],67%
same,residual activity,[20],93%
same,residual activity,[21],93%
same,residual activity,[22],72%
same,residual activity,[23],94%
same,residual activity,[24],94%
same,residual activity,[25],97%
same,residual activity,[26],91%
same,residual activity,[27],84%
same,residual activity,[28],95%
same,residual activity,[29],87%
same,residual activity,[30],89%
same,residual activity,[31],87%
same,residual activity,[32],71%
same,residual activity,[33],82%
O=C(c1ccc(F)cc1)N1CC(COc2ccc(Br)cc2)(C(=O)O)C1 [PF-04475866],Ki,Histamine H4 receptor,10 µM
same,inhibition,[34],-6.66%
